Where a name gives a salt, the structure may show the parent alone.
biological target: T1, DPP-IV from porcine kidney (Sus scrofa, UniProt P22411); assay: Measurement of the DPP-IV activity (fluorimetric H-Ala-Pro-AFC conversion); type: biochemical; conditions: DPP-IV 1 mU/ml, H-Ala-Pro-AFC 15 μM, Tris/HCl 40 mM pH 7.4, room temperature, typically 10 min
T1 construct: DPP-IV from porcine kidney (Sigma, Munich); purchased Sigma, Munich; host or cells: porcine kidney
Experimental: The activity of the compounds was assayed as follows: • Measurement of the DPP-IV activity:
The reaction was carried out at room temperature for various times (typically 10 min) and stopped at the end of the reaction by adding 20 μl of ZnCl2 (1 M). […] When inhibitors were added, the added buffer volume was adapted so that a total volume of 200 μl was maintained for the assay mixture.

T1 sequence (P22411 whole entry): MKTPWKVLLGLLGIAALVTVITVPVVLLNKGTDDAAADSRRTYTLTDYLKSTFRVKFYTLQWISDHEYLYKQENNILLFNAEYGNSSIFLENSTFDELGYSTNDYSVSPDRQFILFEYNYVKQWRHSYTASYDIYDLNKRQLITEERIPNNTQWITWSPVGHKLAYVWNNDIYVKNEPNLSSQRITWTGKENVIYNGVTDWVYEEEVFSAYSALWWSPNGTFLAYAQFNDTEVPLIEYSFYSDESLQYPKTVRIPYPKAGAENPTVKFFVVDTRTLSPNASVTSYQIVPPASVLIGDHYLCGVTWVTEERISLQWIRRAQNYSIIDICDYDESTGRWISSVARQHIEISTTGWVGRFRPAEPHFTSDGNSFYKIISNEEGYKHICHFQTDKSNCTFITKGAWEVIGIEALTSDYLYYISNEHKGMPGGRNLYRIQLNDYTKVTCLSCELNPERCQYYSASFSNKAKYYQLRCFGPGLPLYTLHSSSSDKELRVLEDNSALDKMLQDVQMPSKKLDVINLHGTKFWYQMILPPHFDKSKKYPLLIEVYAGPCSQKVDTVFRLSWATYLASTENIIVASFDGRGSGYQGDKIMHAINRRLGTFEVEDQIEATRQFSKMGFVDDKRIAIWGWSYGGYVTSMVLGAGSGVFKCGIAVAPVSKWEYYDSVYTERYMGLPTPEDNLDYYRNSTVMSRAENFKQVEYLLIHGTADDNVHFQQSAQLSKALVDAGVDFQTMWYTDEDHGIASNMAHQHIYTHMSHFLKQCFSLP

Structure (SMILES)	IC50
CC(C)=CCn1c(OCC(N)Cc2ccc(Cl)cc2)nc2c1c(=O)n(CC(=O)c1ccccc1)c(=O)n2C (stereo not shown) [Example 3, 8-[2-Amino-3-(4-chlorophenyl)propoxyl]-3-methyl-7-(3-methylbut-2-enyl)-1-(2-oxo-2-phenylethyl)-3,7-dihydropurine-2,6-dione]	460 nM
CC(C)=CCn1c(OC[C@H](C)N)nc2c1c(=O)n(CC(=O)c1ccccc1)c(=O)n2C [Example 4, (S)-8-(2-Aminopropoxy)-3-methyl-7-(3-methylbut-2-enyl)-1-(2-oxo-2-phenylethyl)-3,7-dihydropurine-2,6-dione]	28 nM
CC(C)=CCn1c(OCCN)nc2c1c(=O)n(CC(=O)c1ccccc1)c(=O)n2C [Example 2, 8-(2-Aminoethoxy)-3-methyl-7-(3-methylbut-2-enyl)-1-(2-oxo-2-phenylethyl)-3,7-dihydropurine-2,6-dione]	20 nM
CC(C)=CCn1c(OC[C@@H]2CCNC2)nc2c1c(=O)n(CC(=O)c1ccccc1)c(=O)n2C [Example 10, (R)-3-Methyl-7-(3-methylbut-2-enyl)-1-(2-oxo-2-phenylethyl)-8-(pyrrolidin-3-ylmethoxy)-3,7-dihydropurine-2,6-dione hydrochloride]	34 nM
CC(C)=CCn1c(O[C@@H]2CCCC[C@@H]2CN)nc2c1c(=O)n(CC(=O)c1ccccc1)c(=O)n2C (relative stereo) [Example 28, cis-8-(2-Aminomethylcyclohexyloxy)-3-methyl-7-(3-methylbut-2-enyl)-1-(2-oxo-2-phenylethyl)-3,7-dihydropurine-2,6-dione]	13 nM

The remaining lines, values ahead:

IC50	Structure (SMILES)
120 nM	CC(C)=CCn1c(OC[C@H]2CCNC2)nc2c1c(=O)n(CC(=O)c1ccccc1)c(=O)n2C [Example 9, (S)-3-Methyl-7-(3-methylbut-2-enyl)-1-(2-oxo-2-phenylethyl)-8-(pyrrolidin-3-ylmethoxy)-3,7-dihydropurine-2,6-dione hydrochloride]
100 nM	CC(C)=CCn1c(OC[C@@H](C)N)nc2c1c(=O)n(CC(=O)c1ccccc1)c(=O)n2C [Example 11, (R)-8-(2-Aminopropoxy)-3-methyl-7-(3-methylbut-2-enyl)-1-(2-oxo-2-phenylethyl)-3,7-dihydropurine-2,6-dione]
4.5 nM	CC(C)=CCn1c(OC2CCCCC2CN)nc2c1c(=O)n(CC(=O)c1ccccc1)c(=O)n2C (mixture of isomers) [Example 37, trans-8-(2-Aminomethylcyclohexyloxy)-3-methyl-7-(3-methylbut-2-enyl)-1-(2-oxo-2-phenylethyl)-3,7-dihydropurine-2,6-dione hydrochloride (mixture of diastereomers)]
51 nM	CC(C)=CCn1c(OCC2CCCCN2)nc2c1c(=O)n(CC(=O)c1ccccc1)c(=O)n2C (stereo not shown) [Example 7, 3-Methyl-7-(3-methylbut-2-enyl)-1-(2-oxo-2-phenylethyl)-8-(piperidin-2-ylmethoxy)-3,7-dihydropurine-2,6-dione]

system: not given; assay: not given; conditions: not given

melting point	Structure (SMILES)
151.7 °C	CC(C)=CCn1c(O[C@@H]2CCCC[C@H]2CN)nc2c1c(=O)n(CC(=O)c1ccccc1)c(=O)n2C (single isomer, unassigned; diastereomer 1) [Example 38, trans-8-(2-Aminomethylcyclohexyloxy)-3-methyl-7-(3-methylbut-2-enyl)-1-(2-oxo-2-phenylethyl)-3,7-dihydropurine-2,6-dione (diastereomer 1)]
